In PubChem BioAssay (NCI):
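A five-concentration, 48-hour dose response in 96-well plates underlies each endpoint, interpolated linearly between surrounding concentrations. The concentration for 50% growth inhibition is given as GI50. TGI marks complete inhibition of growth.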

Key:
Assay in all cases: DTP human tumour cell line panel, 48 h
SR leukemia = tested on: SR leukemia
K-562 leukemia = tested on: K-562 leukemia
HOP-92 NSCLC = tested on: HOP-92 NSCLC
A498 renal = tested on: A498 renal
RXF 393 renal = tested on: RXF 393 renal
UO-31 renal = tested on: UO-31 renal
CCRF-CEM leukemia = tested on: CCRF-CEM leukemia
HS 578T breast = tested on: HS 578T breast
DU-145 prostate = tested on: DU-145 prostate
SNB-75 CNS = tested on: SNB-75 CNS

CCOC(=O)c1sc(-c2ccc(OS(=O)(=O)c3ccccc3[N+](=O)[O-])c(C=O)c2)nc1C
GI50 (SR leukemia): 1960 nM | TGI (SR leukemia): > 100000 nM | GI50 (K-562 leukemia): 1610 nM | TGI (K-562 leukemia): > 100000 nM | GI50 (HOP-92 NSCLC): 1920 nM | TGI (HOP-92 NSCLC): 5500 nM | GI50 (A498 renal): 532 nM | TGI (A498 renal): 7570 nM | GI50 (RXF 393 renal): 1620 nM | TGI (RXF 393 renal): 5770 nM | GI50 (UO-31 renal): 2360 nM | TGI (UO-31 renal): > 100000 nM | GI50 (CCRF-CEM leukemia): 1830 nM | TGI (CCRF-CEM leukemia): 4490 nM | GI50 (HS 578T breast): 2990 nM | TGI (HS 578T breast): > 100000 nM | GI50 (DU-145 prostate): 3240 nM | TGI (DU-145 prostate): > 100000 nM | GI50 (SNB-75 CNS): 1370 nM | TGI (SNB-75 CNS): 8440 nM
